Data as given in ChEMBL document CHEMBL1201862, “PubChem BioAssay data set” (2004).
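48-hour exposure; five concentrations; linearly interpolated endpoints. GI50 is the concentration that inhibits growth by half.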 Active and inactive are the calls of the source. No stated cut-off is given here; in the data, active = GI50 up to about 1.1 µM and inactive = higher.

Columns and labels:
Assay in all cases: NCI tumour cell line growth inhibition, 48 h
A498 = test system: A498
COLO 205 = test system: COLO 205
DMS-114 = test system: DMS-114
DMS-273 = test system: DMS-273
EKVX = test system: EKVX
HCC 2998 = test system: HCC 2998
HCT-116 = test system: HCT-116
HCT-15 = test system: HCT-15
HL-60 = test system: HL-60
HOP-18 = test system: HOP-18
HOP-62 = test system: HOP-62
HOP-92 = test system: HOP-92
HT-29 = test system: HT-29
IGROV-1 = test system: IGROV-1
K562 = test system: K562
KM-20L2 = test system: KM-20L2
KM12 = test system: KM12
LOX IMVI = test system: LOX IMVI
M19-MEL = test system: M19-MEL
MCF7 = test system: MCF7
NCI-H226 = test system: NCI-H226
NCI-H23 = test system: NCI-H23
NCI-H460 = test system: NCI-H460
NCI-H522 = test system: NCI-H522
NCI/ADR-RES = test system: NCI/ADR-RES
OVCAR-3 = test system: OVCAR-3
OVCAR-4 = test system: OVCAR-4
OVCAR-5 = test system: OVCAR-5
OVCAR-8 = test system: OVCAR-8
RPMI-8226 = test system: RPMI-8226
SF-295 = test system: SF-295
SF-539 = test system: SF-539
SK-MEL-28 = test system: SK-MEL-28
SK-MEL-2 = test system: SK-MEL-2
SK-MEL-5 = test system: SK-MEL-5
SK-OV-3 = test system: SK-OV-3
SN12C = test system: SN12C
SNB-19 = test system: SNB-19
SNB-75 = test system: SNB-75
SNB-78 = test system: SNB-78
SW-620 = test system: SW-620
U-251 = test system: U-251
UACC-257 = test system: UACC-257
UACC-62 = test system: UACC-62
UO-31 = test system: UO-31
ACHN = test system: ACHN
CCRF-CEM = test system: CCRF-CEM
M14 = test system: M14
MOLT-4 = test system: MOLT-4
RXF 393 = test system: RXF 393
SR = test system: SR
TK-10 = test system: TK-10

CC12CCC3C(CCC4=CC(O)CCC43C=O)C1(O)CCC2c1ccc(=O)oc1 (stereo not given)
GI50 (A498): 8.02 nM (active) | GI50 (COLO 205): 16.9 nM (active) | GI50 (DMS-114): 1.4 nM (active) | GI50 (DMS-273): 4.97 nM (active) | GI50 (EKVX): 12.4 nM (active) | GI50 (HCC 2998): 21 nM (active) | GI50 (HCT-116): 50 nM (active) | GI50 (HCT-15): 50.8 nM | GI50 (HL-60): 3.95 nM (active) | GI50 (HOP-18): 10.7 nM (active) | GI50 (HOP-62): 50 nM (active) | GI50 (HOP-92): 16.4 nM (active) | GI50 (HT-29): 9.29 nM (active) | GI50 (IGROV-1): 9.84 nM (active) | GI50 (K562): 50 nM (active) | GI50 (KM-20L2): 8.32 nM (active) | GI50 (KM12): 12.9 nM (active) | GI50 (LOX IMVI): 7.48 nM (active) | GI50 (M19-MEL): 12.8 nM (active) | GI50 (MCF7): 50 nM (active) | GI50 (NCI-H226): 30.3 nM (active) | GI50 (NCI-H23): 2.26 nM (active) | GI50 (NCI-H460): 1.82 nM (active) | GI50 (NCI-H522): 1.5 nM (active) | GI50 (NCI/ADR-RES): 25.3 nM (active) | GI50 (OVCAR-3): 3.68 nM (active) | GI50 (OVCAR-4): 7.23 nM (active) | GI50 (OVCAR-5): 69.3 nM (active) | GI50 (OVCAR-8): 6.22 nM (active) | GI50 (RPMI-8226): 50 nM (active) | GI50 (SF-295): 10.4 nM (active) | GI50 (SF-539): 3.85 nM (active) | GI50 (SK-MEL-28): 50 nM (active) | GI50 (SK-MEL-2): 11.6 nM (active) | GI50 (SK-MEL-5): 6.22 nM (active) | GI50 (SK-OV-3): 11.3 nM (active) | GI50 (SN12C): 4.38 nM (active) | GI50 (SNB-19): 6.22 nM (active) | GI50 (SNB-75): 11 nM (active) | GI50 (SNB-78): 7.5 nM (active) | GI50 (SW-620): 50 nM (active) | GI50 (U-251): 5.56 nM (active) | GI50 (UACC-257): 13.9 nM (active) | GI50 (UACC-62): 50 nM (active) | GI50 (UO-31): 27 nM (active)

CCCC(=O)OC1C(C2COC(C)(C)O2)OC2OC(C)(C)OC21 (stereo not given)
GI50 (A498): > 100000 nM (inactive) | GI50 (ACHN): > 100000 nM (inactive) | GI50 (CCRF-CEM): > 100000 nM (inactive) | GI50 (DMS-114): > 100000 nM (inactive) | GI50 (DMS-273): > 100000 nM (inactive) | GI50 (EKVX): > 100000 nM (inactive) | GI50 (HCT-116): > 100000 nM (inactive) | GI50 (HL-60): > 100000 nM (inactive) | GI50 (HOP-62): > 100000 nM (inactive) | GI50 (HOP-92): > 100000 nM (inactive) | GI50 (HT-29): > 100000 nM (inactive) | GI50 (IGROV-1): > 100000 nM (inactive) | GI50 (K562): > 100000 nM (inactive) | GI50 (KM-20L2): > 100000 nM (inactive) | GI50 (KM12): > 100000 nM (inactive) | GI50 (M14): > 100000 nM (inactive) | GI50 (M19-MEL): > 100000 nM (inactive) | GI50 (MOLT-4): > 100000 nM (inactive) | GI50 (NCI-H23): > 100000 nM (inactive) | GI50 (NCI-H460): > 100000 nM (inactive) | GI50 (NCI-H522): > 100000 nM (inactive) | GI50 (OVCAR-5): > 100000 nM (inactive) | GI50 (OVCAR-8): > 100000 nM (inactive) | GI50 (RXF 393): > 100000 nM (inactive) | GI50 (SF-295): > 100000 nM (inactive) | GI50 (SK-MEL-28): > 100000 nM (inactive) | GI50 (SK-OV-3): > 100000 nM (inactive) | GI50 (SNB-19): > 100000 nM (inactive) | GI50 (SNB-78): > 100000 nM (inactive) | GI50 (SR): > 100000 nM (inactive) | GI50 (TK-10): > 100000 nM (inactive) | GI50 (U-251): > 100000 nM (inactive) | GI50 (UACC-257): > 100000 nM (inactive) | GI50 (UACC-62): > 100000 nM (inactive) | GI50 (UO-31): > 100000 nM (inactive)
